Data reported in ChEMBL document CHEMBL1201862, “PubChem BioAssay data set” (2004).
Active and inactive are the calls of the source.

Key:
Aspartyl aminopeptidase = Aspartyl aminopeptidase (Plasmodium falciparum 3D7, UniProt Q8I2J3)
Procathepsin L = Procathepsin L (Homo sapiens, UniProt P07711)
[1] = molecular target: Multidrug resistance protein CDR1 (Candida albicans, UniProt P43071); assay: inhibition of Nile Red efflux via Candida CDR1 – S. cerevisiae AD1-8u, singleplex, Cherry Pick1 hits, dose response (AID 588606); type: functional
[2] = molecular target: T1, High affinity choline transporter 1 (Homo sapiens, UniProt Q9GZV3); assay: human choline transporter potentiators, potency – cell-based, 10-point CRC, membrane potential dye, dose response (AID 602376); type: functional
T1 sequence (Q9GZV3 whole entry): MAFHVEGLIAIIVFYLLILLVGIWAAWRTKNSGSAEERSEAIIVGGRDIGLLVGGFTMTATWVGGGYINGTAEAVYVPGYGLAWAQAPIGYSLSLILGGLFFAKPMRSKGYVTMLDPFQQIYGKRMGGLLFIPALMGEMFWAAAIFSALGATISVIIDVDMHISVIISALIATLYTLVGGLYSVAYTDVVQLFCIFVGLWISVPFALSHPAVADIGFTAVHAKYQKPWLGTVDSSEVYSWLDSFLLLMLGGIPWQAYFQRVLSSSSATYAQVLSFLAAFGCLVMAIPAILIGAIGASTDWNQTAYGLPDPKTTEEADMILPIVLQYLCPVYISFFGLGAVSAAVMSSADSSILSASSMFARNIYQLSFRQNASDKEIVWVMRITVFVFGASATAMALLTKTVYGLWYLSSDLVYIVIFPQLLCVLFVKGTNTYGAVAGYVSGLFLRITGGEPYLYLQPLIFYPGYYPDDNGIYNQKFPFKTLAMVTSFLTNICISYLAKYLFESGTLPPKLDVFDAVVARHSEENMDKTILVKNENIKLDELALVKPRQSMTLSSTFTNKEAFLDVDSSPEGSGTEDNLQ

Activin receptor type-1 = Activin receptor type-1 (Homo sapiens, UniProt Q04771); assay: Navigating the Kinome. Panel member name: ACVR1; type: functional
[3] = molecular target: Tyrosine-protein kinase ABL1 (Homo sapiens, UniProt P00519); type: functional
[4] = molecular target: Insulin-like growth factor 1 receptor (Homo sapiens, UniProt P08069); assay: Navigating the Kinome. Panel member name: IGF1R; type: functional
[5] = molecular target: Dual specificity tyrosine-phosphorylation-regulated kinase 1B (Homo sapiens, UniProt Q9Y463); assay: Navigating the Kinome. Panel member name: DYRK1B; type: functional
Dual specificity tyrosine-phosphorylation-regulated kinase 1B, sequence (Q9Y463 whole entry): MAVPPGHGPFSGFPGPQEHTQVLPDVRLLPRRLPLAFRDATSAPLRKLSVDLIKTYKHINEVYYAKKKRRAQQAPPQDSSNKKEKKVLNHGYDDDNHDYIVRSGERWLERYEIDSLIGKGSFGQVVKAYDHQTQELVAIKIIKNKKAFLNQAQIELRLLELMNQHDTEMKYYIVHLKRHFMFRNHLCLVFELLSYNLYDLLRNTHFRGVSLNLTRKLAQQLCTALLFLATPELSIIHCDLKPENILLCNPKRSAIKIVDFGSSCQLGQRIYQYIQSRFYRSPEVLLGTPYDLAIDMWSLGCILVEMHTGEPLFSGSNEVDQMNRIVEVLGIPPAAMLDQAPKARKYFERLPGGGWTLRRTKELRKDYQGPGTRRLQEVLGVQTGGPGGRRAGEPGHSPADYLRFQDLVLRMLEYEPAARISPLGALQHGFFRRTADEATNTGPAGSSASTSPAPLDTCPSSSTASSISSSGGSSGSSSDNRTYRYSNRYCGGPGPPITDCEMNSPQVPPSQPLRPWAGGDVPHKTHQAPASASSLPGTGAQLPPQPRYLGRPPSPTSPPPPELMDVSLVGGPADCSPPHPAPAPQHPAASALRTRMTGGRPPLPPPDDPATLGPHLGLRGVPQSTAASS

[6] = molecular target: Ribosomal protein S6 kinase alpha-3 (Homo sapiens, UniProt P51812); type: functional;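 further: measured within a kinome-wide profiling panel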
[7] = molecular target: Protein kinase C zeta type (Homo sapiens, UniProt Q05513); type: functional;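 further: measured as one member of a broad kinase profiling panel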
[8] = molecular target: Serine/threonine-protein kinase PLK3 (Homo sapiens, UniProt Q9H4B4); type: functional
[9] = molecular target: RAC-gamma serine/threonine-protein kinase (Homo sapiens, UniProt Q9Y243); type: functional
[10] = molecular target: 5'-AMP-activated protein kinase catalytic subunit alpha-1 (Homo sapiens, UniProt Q13131); type: functional
5'-AMP-activated protein kinase catalytic subunit alpha-1, sequence (Q13131 whole entry): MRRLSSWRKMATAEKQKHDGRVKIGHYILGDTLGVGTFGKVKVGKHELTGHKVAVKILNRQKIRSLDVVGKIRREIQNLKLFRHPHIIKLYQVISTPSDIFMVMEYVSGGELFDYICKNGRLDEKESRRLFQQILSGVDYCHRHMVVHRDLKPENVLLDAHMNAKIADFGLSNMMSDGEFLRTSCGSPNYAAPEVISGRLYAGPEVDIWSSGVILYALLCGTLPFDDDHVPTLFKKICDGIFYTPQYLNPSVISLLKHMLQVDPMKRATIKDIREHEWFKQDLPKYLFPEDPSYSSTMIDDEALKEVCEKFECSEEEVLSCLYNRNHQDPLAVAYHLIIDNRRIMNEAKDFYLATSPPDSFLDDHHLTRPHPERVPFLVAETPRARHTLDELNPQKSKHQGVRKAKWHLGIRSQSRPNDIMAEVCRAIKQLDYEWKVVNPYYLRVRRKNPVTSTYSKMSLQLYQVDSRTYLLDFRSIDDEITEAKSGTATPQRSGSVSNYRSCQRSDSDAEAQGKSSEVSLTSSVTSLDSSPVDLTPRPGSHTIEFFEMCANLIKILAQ

[11] = molecular target: Protein kinase C delta type (Homo sapiens, UniProt Q05655); type: functional
Protein kinase C delta type, sequence (Q05655 whole entry): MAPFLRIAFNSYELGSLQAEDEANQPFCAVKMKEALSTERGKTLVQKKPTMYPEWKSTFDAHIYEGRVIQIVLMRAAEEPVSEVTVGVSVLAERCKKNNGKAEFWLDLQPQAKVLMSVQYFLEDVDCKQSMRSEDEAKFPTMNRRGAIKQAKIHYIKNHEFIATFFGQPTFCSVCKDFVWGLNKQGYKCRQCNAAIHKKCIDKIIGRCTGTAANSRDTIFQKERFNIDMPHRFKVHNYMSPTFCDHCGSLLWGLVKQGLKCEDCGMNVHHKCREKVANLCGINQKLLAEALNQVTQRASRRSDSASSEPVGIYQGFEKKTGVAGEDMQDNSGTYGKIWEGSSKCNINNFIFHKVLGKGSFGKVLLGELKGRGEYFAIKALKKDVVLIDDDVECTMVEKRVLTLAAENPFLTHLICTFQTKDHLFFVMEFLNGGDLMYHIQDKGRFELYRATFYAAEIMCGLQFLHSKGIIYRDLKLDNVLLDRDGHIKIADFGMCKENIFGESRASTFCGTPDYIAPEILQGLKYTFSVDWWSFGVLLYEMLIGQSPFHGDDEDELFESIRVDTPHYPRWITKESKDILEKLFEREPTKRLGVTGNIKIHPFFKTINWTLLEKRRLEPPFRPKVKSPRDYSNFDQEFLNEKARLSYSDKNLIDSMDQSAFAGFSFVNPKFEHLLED

[12] = molecular target: Ribosomal protein S6 kinase beta-1 (Homo sapiens, UniProt P23443); type: functional;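 further: measured as one member of a kinome-wide profiling panel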
[13] = molecular target: Serine/threonine-protein kinase Chk2 (Homo sapiens, UniProt O96017); type: functional;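 further: CHEK2 entry within a kinome-wide screening panel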
[14] = molecular target: Cyclin-dependent kinase 2 (Homo sapiens, UniProt P24941); type: functional;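 further: CDK2 measured as one member of a broad kinome profiling panel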
[15] = molecular target: Serine/threonine-protein kinase pim-1 (Homo sapiens, UniProt P11309); type: functional
Serine/threonine-protein kinase pim-1, sequence (P11309 whole entry): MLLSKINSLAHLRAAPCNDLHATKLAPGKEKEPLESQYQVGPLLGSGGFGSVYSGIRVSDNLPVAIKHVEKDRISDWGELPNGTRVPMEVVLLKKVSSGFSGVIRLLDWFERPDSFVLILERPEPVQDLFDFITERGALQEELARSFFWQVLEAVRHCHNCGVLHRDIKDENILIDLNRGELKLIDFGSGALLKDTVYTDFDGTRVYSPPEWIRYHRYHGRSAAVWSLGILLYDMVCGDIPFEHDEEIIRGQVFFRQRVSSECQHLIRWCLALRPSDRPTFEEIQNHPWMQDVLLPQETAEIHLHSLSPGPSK

Aurora kinase A = Aurora kinase A (Homo sapiens, UniProt O14965); type: functional;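 further: value from the Navigating the Kinome kinase panel profiling, panel entry STK6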
Aurora kinase A, sequence (O14965 whole entry): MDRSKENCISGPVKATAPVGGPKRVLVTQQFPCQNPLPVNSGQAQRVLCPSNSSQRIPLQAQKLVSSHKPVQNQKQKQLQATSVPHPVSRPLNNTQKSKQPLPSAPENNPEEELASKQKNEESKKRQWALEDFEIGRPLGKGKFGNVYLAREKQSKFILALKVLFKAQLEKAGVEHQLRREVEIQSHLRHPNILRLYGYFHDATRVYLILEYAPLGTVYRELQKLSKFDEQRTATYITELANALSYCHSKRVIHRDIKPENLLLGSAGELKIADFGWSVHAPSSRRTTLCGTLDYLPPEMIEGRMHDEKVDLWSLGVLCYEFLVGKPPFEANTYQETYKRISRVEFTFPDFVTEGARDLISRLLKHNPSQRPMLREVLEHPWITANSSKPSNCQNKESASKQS

[16] = molecular target: MAP kinase-activated protein kinase 2 (Homo sapiens, UniProt P49137); type: functional;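 further: measured as one member of a kinome-wide kinase panel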
[17] = molecular target: Casein kinase II subunit alpha (Homo sapiens, UniProt P68400); type: functional
[18] = molecular target: Serine/threonine-protein kinase PAK 4 (Homo sapiens, UniProt O96013); type: functional;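 further: value obtained within a kinome profiling panel in which PAK4 was one of the panel members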
[19] = molecular target: Fibroblast growth factor receptor 1 (Homo sapiens, UniProt P11362); type: functional
Fibroblast growth factor receptor 1, sequence (P11362 whole entry): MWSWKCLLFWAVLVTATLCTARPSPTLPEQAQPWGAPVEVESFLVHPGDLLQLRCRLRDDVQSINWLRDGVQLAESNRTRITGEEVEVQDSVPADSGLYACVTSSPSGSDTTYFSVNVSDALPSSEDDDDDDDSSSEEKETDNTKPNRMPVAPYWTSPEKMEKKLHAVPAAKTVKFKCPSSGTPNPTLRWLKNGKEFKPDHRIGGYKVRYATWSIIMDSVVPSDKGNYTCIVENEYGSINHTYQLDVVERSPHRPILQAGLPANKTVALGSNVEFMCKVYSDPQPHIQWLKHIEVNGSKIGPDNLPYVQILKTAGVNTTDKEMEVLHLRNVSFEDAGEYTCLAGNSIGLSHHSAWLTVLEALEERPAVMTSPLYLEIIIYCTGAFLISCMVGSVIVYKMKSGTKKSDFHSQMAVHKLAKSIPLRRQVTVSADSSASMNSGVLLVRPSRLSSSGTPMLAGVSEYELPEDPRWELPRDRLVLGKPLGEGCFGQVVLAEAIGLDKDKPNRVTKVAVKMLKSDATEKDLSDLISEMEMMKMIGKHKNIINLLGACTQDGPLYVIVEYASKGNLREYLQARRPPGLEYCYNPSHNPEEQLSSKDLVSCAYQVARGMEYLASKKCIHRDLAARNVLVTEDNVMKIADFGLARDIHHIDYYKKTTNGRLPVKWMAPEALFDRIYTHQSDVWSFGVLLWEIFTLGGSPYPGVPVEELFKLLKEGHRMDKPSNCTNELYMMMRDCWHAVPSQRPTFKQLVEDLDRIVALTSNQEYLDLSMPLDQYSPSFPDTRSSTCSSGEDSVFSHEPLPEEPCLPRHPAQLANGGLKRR

[20] = molecular target: MAP/microtubule affinity-regulating kinase 3 (Homo sapiens, UniProt P27448); type: functional;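 further: MARK3 affinity measured as one member of a kinome panel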
[21] = molecular target: Protein kinase C gamma type (Homo sapiens, UniProt P05129); type: functional
[22] = molecular target: Serine/threonine-protein kinase Chk1 (Homo sapiens, UniProt O14757); type: functional;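 further: measured as one member of a kinome-wide kinase profiling panel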
Ephrin type-A receptor 2 = Ephrin type-A receptor 2 (Homo sapiens, UniProt P29317); type: functional;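 further: EPHA2 tested as one member of a kinome-wide kinase panel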
[23] = molecular target: RAC-alpha serine/threonine-protein kinase (Homo sapiens, UniProt P31749); type: functional;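 further: AKT1 affinity measured as one member of a kinome-wide kinase profiling panel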
[24] = molecular target: Cyclin-dependent kinase 1 (Homo sapiens, UniProt P06493); type: functional;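 further: Kinome-wide panel profiling, with the target listed as panel member CDC2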
Cyclin-dependent kinase 1, sequence (P06493 whole entry): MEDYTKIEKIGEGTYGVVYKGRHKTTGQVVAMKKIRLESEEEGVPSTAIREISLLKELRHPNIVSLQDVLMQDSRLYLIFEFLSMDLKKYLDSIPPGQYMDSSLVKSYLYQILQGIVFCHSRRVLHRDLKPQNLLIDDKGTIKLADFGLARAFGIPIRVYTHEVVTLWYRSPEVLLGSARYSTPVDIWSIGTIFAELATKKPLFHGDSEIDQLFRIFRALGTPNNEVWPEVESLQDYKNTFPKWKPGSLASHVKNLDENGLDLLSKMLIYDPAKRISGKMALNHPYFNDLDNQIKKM

[25] = molecular target: Serine/threonine-protein kinase PLK1 (Homo sapiens, UniProt P53350); type: functional;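 further: PLK1 measured as one member of a kinome-wide profiling panel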
[26] = molecular target: Glycogen synthase kinase-3 beta (Homo sapiens, UniProt P49841); type: functional;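 further: value comes from a broad kinome profiling panel, with GSK3B as the panel member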
Glycogen synthase kinase-3 beta, sequence (P49841 whole entry): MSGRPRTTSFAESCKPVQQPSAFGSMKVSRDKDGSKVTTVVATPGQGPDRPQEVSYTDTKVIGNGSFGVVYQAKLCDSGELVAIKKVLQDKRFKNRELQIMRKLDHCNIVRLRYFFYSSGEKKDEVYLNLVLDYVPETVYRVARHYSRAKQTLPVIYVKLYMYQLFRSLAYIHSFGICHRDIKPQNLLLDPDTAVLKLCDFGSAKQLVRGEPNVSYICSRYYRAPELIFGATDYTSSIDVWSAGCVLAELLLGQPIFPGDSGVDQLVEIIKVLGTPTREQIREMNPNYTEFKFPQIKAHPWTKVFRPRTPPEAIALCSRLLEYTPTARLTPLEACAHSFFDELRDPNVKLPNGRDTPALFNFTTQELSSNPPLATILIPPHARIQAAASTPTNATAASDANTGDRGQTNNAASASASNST

[27] = molecular target: cAMP-dependent protein kinase catalytic subunit alpha (Homo sapiens, UniProt P17612); type: functional
[28] = molecular target: Serine/threonine-protein kinase MRCK alpha (Homo sapiens, UniProt Q5VT25); type: functional
[29] = molecular target: Tyrosine-protein kinase receptor TYRO3 (Homo sapiens, UniProt Q06418); type: functional;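 further: TYRO3 value obtained as one member of a kinome-wide profiling panel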
[30] = molecular target: Casein kinase I isoform alpha (Homo sapiens, UniProt P48729); type: functional
Casein kinase I isoform alpha, sequence (P48729 whole entry, canonical isoform): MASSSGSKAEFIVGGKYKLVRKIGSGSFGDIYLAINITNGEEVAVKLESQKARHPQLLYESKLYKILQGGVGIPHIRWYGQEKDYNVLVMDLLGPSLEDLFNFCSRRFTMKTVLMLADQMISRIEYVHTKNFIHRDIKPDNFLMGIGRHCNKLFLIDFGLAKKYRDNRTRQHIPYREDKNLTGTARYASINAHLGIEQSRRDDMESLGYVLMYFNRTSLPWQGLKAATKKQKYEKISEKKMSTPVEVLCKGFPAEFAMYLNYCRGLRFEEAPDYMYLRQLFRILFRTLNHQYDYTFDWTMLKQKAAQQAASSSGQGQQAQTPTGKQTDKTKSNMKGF

[31] = molecular target: Cell division cycle 7-related protein kinase (Homo sapiens, UniProt O00311); type: functional;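 further: value obtained from a kinome-wide kinase panel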
[32] = molecular target: Homeodomain-interacting protein kinase 2 (Homo sapiens, UniProt Q9H2X6); type: functional;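 further: measured within a kinome-wide kinase profiling panel, HIPK2 being one panel member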
[33] = molecular target: Interleukin-1 receptor-associated kinase 4 (Homo sapiens, UniProt Q9NWZ3); type: functional
Interleukin-1 receptor-associated kinase 4, sequence (Q9NWZ3 whole entry): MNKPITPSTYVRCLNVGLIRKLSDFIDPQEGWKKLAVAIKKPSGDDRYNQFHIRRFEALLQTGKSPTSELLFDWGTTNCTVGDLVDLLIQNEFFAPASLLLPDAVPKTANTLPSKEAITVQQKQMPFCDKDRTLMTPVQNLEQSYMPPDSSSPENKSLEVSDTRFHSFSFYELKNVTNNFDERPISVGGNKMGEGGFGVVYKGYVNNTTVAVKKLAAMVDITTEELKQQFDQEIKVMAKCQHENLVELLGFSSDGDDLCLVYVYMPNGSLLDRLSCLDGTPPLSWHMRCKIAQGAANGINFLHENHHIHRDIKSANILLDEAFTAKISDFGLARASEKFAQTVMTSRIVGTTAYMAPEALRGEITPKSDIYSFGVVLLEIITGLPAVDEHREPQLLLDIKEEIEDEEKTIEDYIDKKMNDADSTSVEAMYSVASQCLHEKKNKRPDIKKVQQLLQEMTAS

[34] = molecular target: Dual specificity protein kinase CLK4 (Homo sapiens, UniProt Q9HAZ1); type: functional
[35] = molecular target: Mitogen-activated protein kinase kinase kinase kinase 4 (Homo sapiens, UniProt O95819); type: functional

**Q.** Which IC50 (Aspartyl aminopeptidase) does the source give for `O=C1NC(=S)NC(=O)C1=Cc1cc2ccccc2[nH]1` here?
**A.** Its IC50 is 1.67 µM (active).

**Q.** What about the IC50 (Procathepsin L) of the same molecule?
**A.** The IC50 was > 59.6 µM (not active).

**Q.** And the EC50 [1]?
**A.** Its EC50 is 6 µM (active).

**Q.** For `COC(=O)CCC(=O)Nc1sc2c(c1C#N)CCCC2`, which EC50 [2] is on record?
**A.** Its EC50 is 14 µM (active).

**Q.** What does the source list for `CC(C)(C)c1nc2c3ccc(F)cc3c3c(=O)[nH]ccc3c2[nH]1`?
**A.** Ki (Activin receptor type-1): > 3.98 µM (inactive); Ki [3]: > 2.51 µM (inactive); Ki [4]: > 2.51 µM (inactive); Ki [5]: > 2.51 µM (inactive)

**Q.** Which results are given for `O=C1NC(=O)C(Nc2ccccc2)=C1Cl`?
**A.** Ki [6]: > 20 µM (inactive); Ki [7]: > 20 µM (inactive); Ki [8]: > 20 µM (inactive); Ki [9]: > 25.1 µM (inactive); Ki [10]: > 25.1 µM (inactive); Ki [11]: > 20 µM (inactive); Ki [12]: > 15.8 µM (inactive); Ki [13]: > 25.1 µM (inactive); Ki [14]: > 20 µM (inactive); Ki [15]: 15.8 µM (active); Ki (Aurora kinase A): 15.8 µM (active); Ki [16]: > 20 µM (inactive); Ki [17]: > 15.8 µM (inactive); Ki [18]: > 12.6 µM (inactive); Ki [19]: > 12.6 µM (inactive); Ki [20]: > 15.8 µM (inactive); Ki [21]: > 20 µM (inactive); Ki [22]: 12.6 µM (active); Ki (Ephrin type-A receptor 2): > 20 µM (inactive); Ki [23]: > 20 µM (inactive); Ki [24]: > 20 µM (inactive); Ki [25]: > 20 µM (inactive); Ki [26]: 1 µM (active); Ki [27]: > 20 µM (inactive); Ki [28]: > 25.1 µM (inactive)

**Q.** Which results are given for `NC(=O)c1ccccc1-c1ncc[nH]1`?
**A.** Ki [29]: 79.4 µM (active); Ki [30]: 50.1 µM (active); Ki [5]: 63.1 µM (active)

**Q.** `O=c1cc(-c2cccc(F)c2)[nH]c2c(-c3ccc(F)cc3)cnn12` was tested. Which Ki [14] did it give?
**A.** Its Ki is > 7.94 µM (inactive).

**Q.** What about the Ki [15] of the same molecule?
**A.** Its Ki is 0.126 µM (active).

**Q.** And the Ki [31]?
**A.** Its Ki is 0.0631 µM (active).

**Q.** And the Ki [32]?
**A.** The Ki was 0.501 µM (active).

**Q.** And the Ki [33]?
**A.** Its Ki is > 10 µM (inactive).

**Q.** What about the Ki [26] of the same molecule?
**A.** The Ki was 2 µM (active).

**Q.** And the Ki [27]?
**A.** The Ki was > 7.94 µM (inactive).

**Q.** What about the Ki [34] of the same molecule?
**A.** The Ki was 0.158 µM (active).

**Q.** And the Ki [35]?
**A.** Its Ki is > 10 µM (inactive).
